Calls of active or inactive are those of the source.
What was measured:
[1] = blockers of HIV-1 envelope-mediated cell-cell fusion – cherry-pick, dose response (AID 652057); assay type: functional, cell-based
[2] = blockers of HIV-1 ZM109 envelope-driven cell-cell fusion – HeLa effector, CEM target cells, luciferase, cherry-pick, dose response (AID 652058); assay type: functional, cell-based;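 note: luciferase signal from HIV-1 Env mediated cell-cell fusion of effector and target cells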
[3] = biological target: T1, Heat shock factor protein 1 (Mus musculus, UniProt P38532); assay: enhancement of HSF1-driven luciferase signal – cell-based, NIH3T3, luminescence, dose retest, confirmation (AID 435004); assay type: functional;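 note: stress induced by proteasome inhibitor MG132 added 30 min after compound; luciferase reporter driven by HSF1 response element in NIH3T3 cells; actives raise luminescence as potentiators of the MG132 stress response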
T1 sequence (P38532 whole entry): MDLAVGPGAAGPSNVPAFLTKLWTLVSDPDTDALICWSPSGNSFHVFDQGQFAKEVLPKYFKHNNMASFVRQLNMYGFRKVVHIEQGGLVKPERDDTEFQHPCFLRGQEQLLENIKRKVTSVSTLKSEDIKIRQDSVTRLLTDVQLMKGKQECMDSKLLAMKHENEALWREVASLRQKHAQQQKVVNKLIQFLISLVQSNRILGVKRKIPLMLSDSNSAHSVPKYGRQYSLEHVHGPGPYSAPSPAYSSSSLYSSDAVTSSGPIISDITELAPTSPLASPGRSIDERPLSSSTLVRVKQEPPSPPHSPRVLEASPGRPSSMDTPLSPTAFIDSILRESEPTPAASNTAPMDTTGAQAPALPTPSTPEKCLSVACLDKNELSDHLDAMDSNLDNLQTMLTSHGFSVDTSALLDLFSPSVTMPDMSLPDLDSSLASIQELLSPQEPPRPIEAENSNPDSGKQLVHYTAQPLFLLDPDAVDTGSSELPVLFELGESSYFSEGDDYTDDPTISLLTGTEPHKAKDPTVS

[4] = HEK-293T cell viability reduction – luminescence, B-cell screen hits, cytotoxicity control for BCR NF-kB inhibitor project, dose response (AID 489021); assay type: functional, cell-based;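 note: HEK-293T cells carrying an NF-kB luciferase reporter; cells exposed to compound for about 14 hours before viability readout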
[5] = biological target: T2, Short transient receptor potential channel 4 (Mus musculus, UniProt Q9QUQ5); assay: block of DAMGO-driven TRPC4 calcium entry – cell-based, HEK293 TRPC4/mu-opioid, Fluo-4 calcium, dose response (AID 434942); assay type: functional;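 note: potency of inhibitors blocking the TRPC4 calcium response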
T2 sequence (Q9QUQ5 whole entry): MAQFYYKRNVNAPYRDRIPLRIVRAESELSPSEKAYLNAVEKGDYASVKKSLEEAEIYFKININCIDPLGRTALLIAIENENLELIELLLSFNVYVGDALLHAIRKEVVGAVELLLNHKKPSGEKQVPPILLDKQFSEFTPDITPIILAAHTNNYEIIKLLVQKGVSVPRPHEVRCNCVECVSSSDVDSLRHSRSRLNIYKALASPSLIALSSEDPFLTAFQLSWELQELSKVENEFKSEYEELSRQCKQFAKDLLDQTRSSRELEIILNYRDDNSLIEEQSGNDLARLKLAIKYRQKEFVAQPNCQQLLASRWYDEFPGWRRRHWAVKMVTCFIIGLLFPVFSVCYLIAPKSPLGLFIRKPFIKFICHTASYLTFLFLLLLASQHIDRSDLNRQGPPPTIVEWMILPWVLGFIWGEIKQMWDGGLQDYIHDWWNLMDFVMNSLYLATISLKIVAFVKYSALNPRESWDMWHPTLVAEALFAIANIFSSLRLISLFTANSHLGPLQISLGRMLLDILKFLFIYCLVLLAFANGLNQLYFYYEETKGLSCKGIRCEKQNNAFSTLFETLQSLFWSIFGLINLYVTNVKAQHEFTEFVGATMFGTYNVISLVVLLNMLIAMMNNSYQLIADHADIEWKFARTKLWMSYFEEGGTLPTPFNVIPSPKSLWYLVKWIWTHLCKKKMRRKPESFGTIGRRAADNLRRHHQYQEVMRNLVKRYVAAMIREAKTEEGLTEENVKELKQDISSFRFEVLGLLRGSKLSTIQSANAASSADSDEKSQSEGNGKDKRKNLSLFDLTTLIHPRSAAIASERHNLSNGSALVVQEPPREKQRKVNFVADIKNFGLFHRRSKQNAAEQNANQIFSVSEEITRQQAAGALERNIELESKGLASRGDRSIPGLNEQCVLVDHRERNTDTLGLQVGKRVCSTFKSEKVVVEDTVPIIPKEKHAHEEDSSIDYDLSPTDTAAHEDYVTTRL

[6] = biological target: T3, RNA-binding protein pos-1 (Caenorhabditis elegans, UniProt G5EF15); assay: disruptors of C. elegans POS-1 RNA interaction – biochemical, fluorescence polarization, dose response (AID 1964);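 note: purified POS-1 fused to maltose binding protein made in E. coli; potency of compounds blocking POS-1 binding to fluorescent RNA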
T3 sequence (G5EF15 whole entry): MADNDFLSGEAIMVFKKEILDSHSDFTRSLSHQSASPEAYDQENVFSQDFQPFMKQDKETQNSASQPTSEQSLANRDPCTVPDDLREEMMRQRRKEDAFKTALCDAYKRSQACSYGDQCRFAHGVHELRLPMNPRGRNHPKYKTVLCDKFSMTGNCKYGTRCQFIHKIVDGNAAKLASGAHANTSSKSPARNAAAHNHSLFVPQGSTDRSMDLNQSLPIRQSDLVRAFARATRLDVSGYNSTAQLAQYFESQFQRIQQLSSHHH

[7] = biological target: T4, Zinc finger protein mex-5 (Caenorhabditis elegans, UniProt Q9XUB2); assay: potency of MEX-5 RNA-binding blockers – biochemical, C. elegans, fluorescence polarization, dose response (AID 1960)
T4 sequence (Q9XUB2 whole entry): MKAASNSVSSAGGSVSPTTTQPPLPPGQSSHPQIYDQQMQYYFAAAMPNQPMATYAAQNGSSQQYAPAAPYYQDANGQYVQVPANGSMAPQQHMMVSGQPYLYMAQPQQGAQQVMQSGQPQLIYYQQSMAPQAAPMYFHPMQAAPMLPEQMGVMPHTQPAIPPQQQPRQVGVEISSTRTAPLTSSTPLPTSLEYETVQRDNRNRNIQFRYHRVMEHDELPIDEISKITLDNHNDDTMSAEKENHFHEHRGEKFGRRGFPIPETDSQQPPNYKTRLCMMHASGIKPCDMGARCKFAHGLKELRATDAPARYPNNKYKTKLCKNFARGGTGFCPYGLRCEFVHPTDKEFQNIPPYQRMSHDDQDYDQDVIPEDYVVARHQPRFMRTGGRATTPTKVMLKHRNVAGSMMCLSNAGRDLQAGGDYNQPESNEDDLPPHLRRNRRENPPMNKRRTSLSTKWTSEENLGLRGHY

Aminopeptidase N = biological target: T5, Aminopeptidase N (Plasmodium falciparum FcB1/Columbia, UniProt O96935); assay: malaria alanyl aminopeptidase activity blockers – biochemical, fluorogenic H-Leu-NHMec substrate, 1536-well (AID 1445); set-up: species or system Plasmodium falciparum 3D7, 3D7
T5 sequence (O96935 whole entry): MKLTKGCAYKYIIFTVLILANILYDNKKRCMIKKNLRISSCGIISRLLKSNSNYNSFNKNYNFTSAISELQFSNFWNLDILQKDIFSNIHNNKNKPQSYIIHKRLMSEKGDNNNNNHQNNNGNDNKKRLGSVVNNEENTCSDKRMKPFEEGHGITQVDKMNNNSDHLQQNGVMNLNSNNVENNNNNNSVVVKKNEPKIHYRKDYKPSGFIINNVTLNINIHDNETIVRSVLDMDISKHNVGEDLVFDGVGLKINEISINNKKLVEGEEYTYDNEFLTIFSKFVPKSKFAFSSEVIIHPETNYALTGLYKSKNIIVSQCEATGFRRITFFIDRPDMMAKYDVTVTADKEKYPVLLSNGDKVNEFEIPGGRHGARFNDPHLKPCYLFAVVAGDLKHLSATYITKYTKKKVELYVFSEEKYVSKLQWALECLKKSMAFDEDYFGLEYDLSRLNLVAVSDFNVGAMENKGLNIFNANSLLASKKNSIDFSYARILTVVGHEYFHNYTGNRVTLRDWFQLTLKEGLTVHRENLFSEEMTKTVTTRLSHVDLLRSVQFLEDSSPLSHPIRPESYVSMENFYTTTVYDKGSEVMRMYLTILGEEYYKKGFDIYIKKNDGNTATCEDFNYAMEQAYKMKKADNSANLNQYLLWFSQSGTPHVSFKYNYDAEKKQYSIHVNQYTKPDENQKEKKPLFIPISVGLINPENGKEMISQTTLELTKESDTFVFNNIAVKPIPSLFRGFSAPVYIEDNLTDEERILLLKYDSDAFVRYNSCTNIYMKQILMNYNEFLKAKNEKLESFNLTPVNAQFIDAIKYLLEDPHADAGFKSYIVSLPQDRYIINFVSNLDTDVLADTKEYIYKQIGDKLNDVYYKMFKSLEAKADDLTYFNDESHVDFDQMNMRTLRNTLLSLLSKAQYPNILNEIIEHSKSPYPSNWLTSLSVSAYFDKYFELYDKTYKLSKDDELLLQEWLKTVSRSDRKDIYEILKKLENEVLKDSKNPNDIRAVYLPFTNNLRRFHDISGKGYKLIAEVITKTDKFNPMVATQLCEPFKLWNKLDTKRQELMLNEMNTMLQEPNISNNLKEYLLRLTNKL

[8] = biological target: T6, Ubiquitin-conjugating enzyme E2 N (Homo sapiens, UniProt P61088); assay type: functional;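 note: Dose-response confirmation in a TR-FRET assay detecting UBC13-driven polyubiquitin chain formation, inhibition measured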
T6 sequence (P61088 whole entry): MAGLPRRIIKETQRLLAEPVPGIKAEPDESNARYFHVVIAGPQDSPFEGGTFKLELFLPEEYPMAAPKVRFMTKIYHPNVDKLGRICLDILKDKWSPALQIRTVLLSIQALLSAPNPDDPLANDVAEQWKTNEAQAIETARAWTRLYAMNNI

Cytochrome P450 2C9 = Cytochrome P450 2C9 (Homo sapiens, UniProt P11712)
Sequence of Cytochrome P450 2C9 (P11712 whole entry): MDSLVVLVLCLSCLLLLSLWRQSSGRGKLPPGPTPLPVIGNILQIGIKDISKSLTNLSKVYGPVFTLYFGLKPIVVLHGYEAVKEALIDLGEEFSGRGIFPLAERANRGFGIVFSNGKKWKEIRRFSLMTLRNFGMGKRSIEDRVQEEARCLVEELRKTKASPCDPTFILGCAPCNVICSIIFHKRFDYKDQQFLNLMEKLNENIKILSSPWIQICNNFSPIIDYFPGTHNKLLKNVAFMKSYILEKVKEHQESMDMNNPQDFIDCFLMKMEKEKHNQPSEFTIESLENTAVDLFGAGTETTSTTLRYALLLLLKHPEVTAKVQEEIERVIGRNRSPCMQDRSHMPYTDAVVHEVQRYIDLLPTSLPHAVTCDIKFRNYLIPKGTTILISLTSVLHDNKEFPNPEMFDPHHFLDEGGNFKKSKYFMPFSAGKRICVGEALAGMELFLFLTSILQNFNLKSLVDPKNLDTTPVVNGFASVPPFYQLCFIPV

Protein skinhead-1 = biological target: T7, Protein skinhead-1 (Caenorhabditis elegans, UniProt P34707); assay type: functional
T7 sequence (P34707 whole entry): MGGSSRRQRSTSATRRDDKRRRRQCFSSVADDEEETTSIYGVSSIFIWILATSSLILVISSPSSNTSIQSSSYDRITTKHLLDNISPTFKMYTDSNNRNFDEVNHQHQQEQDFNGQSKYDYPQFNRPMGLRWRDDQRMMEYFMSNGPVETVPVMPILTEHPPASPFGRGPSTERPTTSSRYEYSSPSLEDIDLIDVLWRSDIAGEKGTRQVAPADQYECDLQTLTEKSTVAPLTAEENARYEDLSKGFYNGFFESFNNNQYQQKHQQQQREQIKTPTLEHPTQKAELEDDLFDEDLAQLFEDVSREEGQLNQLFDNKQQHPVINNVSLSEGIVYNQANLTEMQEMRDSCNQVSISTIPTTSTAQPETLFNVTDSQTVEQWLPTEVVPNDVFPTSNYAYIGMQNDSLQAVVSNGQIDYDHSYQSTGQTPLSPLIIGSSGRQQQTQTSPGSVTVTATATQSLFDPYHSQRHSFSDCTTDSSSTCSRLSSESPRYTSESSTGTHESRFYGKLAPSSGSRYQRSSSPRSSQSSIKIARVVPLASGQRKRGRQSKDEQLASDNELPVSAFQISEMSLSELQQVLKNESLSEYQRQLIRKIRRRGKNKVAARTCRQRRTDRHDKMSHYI

[9] = alpha-synuclein stem-loop luciferase translation blockers – H4 neuroglioma cells, luminescence, confirmation (AID 1988); assay type: functional, cell-based
[10] = luciferase reporter signal suppression in cells – H4 neuroglioma cells, luminescence, dose response (AID 1990); assay type: functional, cell-based
[11] = Luminescence Cell-Based Dose Response HTS to Identify Inhibitors of 5'UTR Stem-Loop Driven Prion Protein mRNA Translation in H4 Neuroglioblastoma Cells. [Related pubchem assays: 1827 (Project Summary), 1813 (Primary HTS)]; assay type: functional
[12] = HIV-1 AD8 envelope cell-cell fusion blockers – cherry-pick, dose response (AID 652062); assay type: functional, cell-based;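 note: luciferase signal from cell-cell fusion driven by HIV-1 clade B AD8 Env; potency is for inhibitors of fusion seen as a drop in luminescence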
[13] = biological target: T1, Heat shock factor protein 1; assay: decrease of HSF1-responsive luciferase luminescence – cell-based, NIH3T3, dose retest, confirmation (AID 2382); assay type: functional;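 note: NIH3T3 fibroblasts with HSF1-driven luciferase reporter stressed by proteasome inhibitor MG132; luminescence from HSF1-driven luciferase expression after 8 hours of MG132 stress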

With `C[C@H](CO)N1C[C@H](C)[C@@H](CN(C)Cc2ccncc2)Oc2cc(C3=CCCCC3)ccc2S1(=O)=O` the AC50 [1] was 13.4 µM (active) and the AC50 [2] was 12.3 µM (active).

For `COc1ccc(/C=C2\SC(=S)N(CCC(=O)Nc3cccc(O)c3)C2=O)cc1`, the EC50 [3] was 58.8 µM (active) and the IC50 [4] was > 80 µM (inactive).

For `CC1CCN(CCCOc2ccc(OCc3ccccc3)cc2)CC1`, the EC50 [5] was 0.531 µM (active).

With `CN1C(=O)S/C(=C/c2cccn2-c2cccc(C(=O)O)c2)C1=O` the EC50 [6] was > 300 µM (not active), the EC50 [7] was > 300 µM (not active) and the IC50 (Aminopeptidase N) was 84.3 µM (active).

With `O=C(CCCN1C(=O)/C(=C/c2ccccc2Cl)SC1=S)NNC(=O)c1ccc(Cl)cc1` the IC50 [4] was > 80 µM (inactive) and the IC50 [8] was > 20 µM (inactive).

For `Clc1ccc(Cc2nc(-c3cccnc3)no2)cc1`, the AC50 (Cytochrome P450 2C9) was 28.2 µM (inconclusive) and the IC50 (Protein skinhead-1) was 36.4 µM (active).

In the case of `O=[N+]([O-])c1ccc(N2CCc3ccccc3C2)cc1`, the IC50 (Protein skinhead-1) is reported as > 100 µM (inactive).

With `CC(CCc1ccco1)NC(=O)CSc1cc(=O)n(C)c2ccccc12` (stereo not drawn) the IC50 (Protein skinhead-1) was > 100 µM (inactive).

For `Nc1sccc1C(=O)NCc1ccccc1`, the IC50 (Protein skinhead-1) was > 100 µM (inactive).

For `CCN(CCCNC(=O)CC(C(=O)N1CCc2ccccc21)n1ccnc1)c1cccc(C)c1` (stereo not drawn), the IC50 (Protein skinhead-1) was > 100 µM (inactive).

For `O=C(COC(=O)c1c(Cl)cccc1Cl)Nc1ccccc1Br`, the EC50 [5] was 1.33 µM (active).

With `Cc1cccc(C(=O)Nc2ccc(CC(=O)O)cc2)c1` the EC50 [9] was 28.5 µM (active), the EC50 [10] was 12.9 µM (active) and the EC50 [11] was 16.9 µM (active). For the same compound, the IC50 [4] was > 80 µM (inactive).

With `COc1ccc(N2CCn3c2nc2c3c(=O)n(CCCc3ccccc3)c(=O)n2C)c(OC)c1` the AC50 [12] was 5.71 µM (active) and the AC50 [2] was 0.572 µM (active).

For `NC(=O)C1CCN(C(=O)COc2ccc3ccccc3c2Br)CC1`, the IC50 [4] was > 80 µM (inactive).

For `Cc1cccc(C)c1OCC(=O)Nc1nnc(C2CCCO2)s1` (stereo not drawn), the IC50 (Protein skinhead-1) was > 100 µM (inactive).

With `COc1ncnc2sc3c(c12)CCCC3` the EC50 [5] was 5.96 µM (active).

For `O=C(CCCc1nc(-c2ccccc2Cl)no1)NC1CCCC1`, the EC50 [9] was 0.606 µM (active), the EC50 [10] was 0.822 µM (active) and the EC50 [11] was 5.93 µM (active). For the same compound, the IC50 [4] was > 80 µM (inactive) and the EC50 [13] was > 195 µM (not active).

In the case of `Cc1cccnc1Nc1nc(-c2ccc(F)cc2)cs1`, the IC50 (Protein skinhead-1) is reported as 89.2 µM (inactive).

With `C#Cc1ccc(CN2CCCC(C(=O)Nc3ccccc3Oc3cccnc3)C2)cc1` (stereo not drawn) the EC50 [5] was 1.68 µM (active).
